Data on three molecules can be found in publication PMC5012566, “A Cell-Based Assay for Measuring Endogenous BcrAbl Kinase Activity and Inhibitor Resistance” (PLoS ONE, 2016).

In one test the test system is K562-DR cells. As to the kind of experiment: cells. The conditions noted are these: Homo sapiens, read-out: Growth Inhibition IC50 (95% CI).
In test [1] the test system is K562-NR cells. Nature of the test: cells. The conditions noted are these: Homo sapiens, read-out: Growth Inhibition IC50 (95% CI).
Test [2] relates to K562-NR cells. The conditions noted are these: cross-resistance, relative to parental.
The subject of test [3] is chronic myeloid leukemia (CML). The conditions noted are these: cited from earlier work.
In a further test the test system is K562 cells. The following applies: parental K562 cells; 10 nM dasatinib; Fig 6C.

In the case of `Cc1cn(-c2cc(NC(=O)c3ccc(C)c(Nc4nccc(-c5cccnc5)n4)c3)cc(C(F)(F)F)c2)cn1` [nilotinib], the results for the IC50 with K562-DR cells and in the test with K562-NR cells [1] were 25 nM and 718 nM, respectively.
For `Cc1ccc(NC(=O)c2ccc(CN3CCN(C)CC3)cc2)cc1Nc1nccc(-c2cccnc2)n1` [imatinib], the “cell growth inhibition (in words)” value in the test on K562-NR cells [2] is on record as “unable to inhibit growth at any of the concentrations tested”. The response rate in test [3] is 80%.
Regarding `Cc1nc(Nc2ncc(C(=O)Nc3c(C)cccc3Cl)s2)cc(N2CCN(CCO)CC2)n1` [dasatinib], the “cell growth inhibition (in words)” value with K562-NR cells [2] was “somewhat less potent”. Moreover, in the test on K562-NR cells [1], the IC50 is 3.6 nM. In the test with K562 cells, the “cell growth at the level consistent with resistant culture conditions” value is “lack of growth”.

What is called IC50 is the point on the concentration scale where inhibition reaches its midpoint.
